A value given as a limit tells only on which side of the number the result lay.

The source of these data is ChEMBL document CHEMBL1781893, “New potent human acetylcholinesterase inhibitors in the tetracyclic triterpene series with inhibitory potency on amyloid β aggregation” (Eur J Med Chem, 2011).

The target of one assay is Cholinesterase (Homo sapiens, UniProt P06276).
The target of assay [1] is Acetylcholinesterase (Homo sapiens, UniProt P22303).
Description: Inhibition of recombinant human AChE using acetylthiocholine iodide as substrate by spectroscopic Ellmans method
Assay [2] concerns the target Acetylcholinesterase (Electrophorus electricus, UniProt O42275).
Description: Inhibition of Electrophorus electricus AChE using acetylthiocholine iodide as substrate by spectroscopic Ellmans method

Chain of Acetylcholinesterase (Electrophorus electricus, UniProt O42275) (O42275 whole entry): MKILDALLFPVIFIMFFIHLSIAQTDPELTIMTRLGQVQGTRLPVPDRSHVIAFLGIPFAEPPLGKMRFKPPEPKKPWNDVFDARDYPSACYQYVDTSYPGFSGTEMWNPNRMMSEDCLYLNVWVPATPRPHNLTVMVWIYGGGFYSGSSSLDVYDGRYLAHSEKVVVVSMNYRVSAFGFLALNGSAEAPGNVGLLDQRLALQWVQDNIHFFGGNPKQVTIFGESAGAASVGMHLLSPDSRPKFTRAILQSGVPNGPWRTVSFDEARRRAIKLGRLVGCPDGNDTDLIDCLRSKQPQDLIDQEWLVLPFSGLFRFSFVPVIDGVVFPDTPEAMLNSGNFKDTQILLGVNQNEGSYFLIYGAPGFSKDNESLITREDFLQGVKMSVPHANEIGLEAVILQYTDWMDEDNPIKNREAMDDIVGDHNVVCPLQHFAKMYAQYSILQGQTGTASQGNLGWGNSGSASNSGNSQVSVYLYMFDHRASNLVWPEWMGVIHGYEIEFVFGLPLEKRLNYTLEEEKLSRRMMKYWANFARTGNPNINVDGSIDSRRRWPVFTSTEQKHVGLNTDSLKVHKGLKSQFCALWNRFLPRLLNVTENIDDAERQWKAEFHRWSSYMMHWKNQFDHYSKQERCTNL
Chain of Acetylcholinesterase (Homo sapiens, UniProt P22303) (P22303 whole entry): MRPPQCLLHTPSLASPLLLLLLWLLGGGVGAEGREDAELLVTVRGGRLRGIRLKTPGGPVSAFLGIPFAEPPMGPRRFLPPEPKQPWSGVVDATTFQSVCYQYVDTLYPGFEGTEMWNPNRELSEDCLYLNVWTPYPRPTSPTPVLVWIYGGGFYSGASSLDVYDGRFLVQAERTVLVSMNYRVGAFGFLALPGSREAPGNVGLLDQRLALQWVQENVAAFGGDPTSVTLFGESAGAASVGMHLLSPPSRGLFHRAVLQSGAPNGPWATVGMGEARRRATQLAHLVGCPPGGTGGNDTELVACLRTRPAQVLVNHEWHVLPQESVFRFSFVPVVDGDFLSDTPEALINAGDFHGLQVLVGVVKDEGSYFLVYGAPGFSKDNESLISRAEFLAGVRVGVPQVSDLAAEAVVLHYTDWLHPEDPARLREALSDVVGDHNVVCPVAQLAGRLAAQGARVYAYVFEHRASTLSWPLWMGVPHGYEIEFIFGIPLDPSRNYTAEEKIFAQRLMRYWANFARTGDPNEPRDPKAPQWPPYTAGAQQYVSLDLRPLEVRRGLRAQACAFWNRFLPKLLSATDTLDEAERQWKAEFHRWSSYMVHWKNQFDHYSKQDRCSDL
Chain of Cholinesterase (P06276 whole entry): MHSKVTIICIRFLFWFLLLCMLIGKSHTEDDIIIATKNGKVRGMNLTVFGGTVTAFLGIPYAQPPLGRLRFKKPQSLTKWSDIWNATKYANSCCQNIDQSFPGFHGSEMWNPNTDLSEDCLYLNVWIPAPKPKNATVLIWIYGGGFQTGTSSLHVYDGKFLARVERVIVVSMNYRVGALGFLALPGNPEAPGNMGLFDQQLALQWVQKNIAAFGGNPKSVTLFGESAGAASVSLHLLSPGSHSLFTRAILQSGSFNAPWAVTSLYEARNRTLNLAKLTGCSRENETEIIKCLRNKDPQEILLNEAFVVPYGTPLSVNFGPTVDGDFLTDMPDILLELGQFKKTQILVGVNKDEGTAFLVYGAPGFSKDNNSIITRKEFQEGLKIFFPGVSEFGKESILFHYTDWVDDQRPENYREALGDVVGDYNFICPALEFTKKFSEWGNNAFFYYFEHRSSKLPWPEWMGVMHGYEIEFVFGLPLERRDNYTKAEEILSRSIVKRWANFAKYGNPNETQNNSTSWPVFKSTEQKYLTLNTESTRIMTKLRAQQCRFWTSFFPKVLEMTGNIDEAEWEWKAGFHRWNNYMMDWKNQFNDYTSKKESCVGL

Regarding `CC(C)C1=N[C@H]2CC[C@]34C[C@]35C(=O)C[C@]3(C)[C@@H]([C@H](C)N(C)C)[C@H](O)C[C@@]3(C)[C@@H]5CC[C@H]4[C@]2(C)CS1`, the figures for the IC50 at Cholinesterase, on Acetylcholinesterase [1] and against Acetylcholinesterase [2] were 5370 nM, 60 nM and 38 nM, respectively.
Take `CC(C)C1=N[C@H]2CC[C@]34C[C@]35C(=O)C[C@]3(C)[C@@H]([C@H](C)N(C)C(=O)c6ccccc6)[C@H](O)C[C@@]3(C)[C@@H]5CC[C@H]4[C@]2(C)CS1`: the IC50 is above 1000 nM on Cholinesterase, 43 nM against Acetylcholinesterase [1] and 37 nM against Acetylcholinesterase [2].
In the same order, the values of `CC(C)C1=N[C@H]2CC[C@]34C[C@]35C(=O)C[C@]3(C)[C@@H]([C@H](C)N(C)Cc6cccc(C(F)(F)F)c6)[C@H](O)C[C@@]3(C)[C@@H]5CC[C@H]4[C@]2(C)CS1` are above 10000 nM, 3 nM and 9 nM.
Turning to `CCN1C[C@]2(C)[C@H](CC=C3C[C@H]4C(=O)C[C@]5(C)[C@@H]([C@H](C)N(C)C)[C@H](O)C[C@@]5(C)[C@@H]4CC[C@H]32)N=C1C(C)C`, the IC50 was 3330 nM against Cholinesterase, above 10000 nM at Acetylcholinesterase [1] and above 10000 nM at Acetylcholinesterase [2].
For the compound `CC(C)C1=N[C@H]2CC[C@]34C[C@]35C(=O)C[C@]3(C)[C@@H]([C@H](C)N(C)C)[C@H](O)C[C@@]3(C)[C@@H]5CC[C@H]4[C@]2(C)CN1C`, the figures for the IC50 on Cholinesterase, against Acetylcholinesterase [1] and against Acetylcholinesterase [2] were 2950 nM, above 10000 nM and above 10000 nM, respectively.
Turning to `CC(C)C1=N[C@H]2CC[C@]34C[C@]35C(=O)C[C@]3(C)[C@@H]([C@H](C)N(C)C)[C@H](O)C[C@@]3(C)[C@@H]5CC[C@H]4[C@]2(C)CC1`, the IC50 at Cholinesterase was above 10000 nM; against Acetylcholinesterase [1], 618 nM; against Acetylcholinesterase [2], 294 nM.
In the same order, the values of `COc1ccccc1CN(C)[C@@H](C)[C@H]1[C@H](O)C[C@@]2(C)[C@@H]3CC[C@H]4[C@]5(C)CSC(C(C)C)=N[C@H]5CC[C@@]45C[C@@]35C(=O)C[C@]12C` are 333 nM, 6 nM and 12 nM.
Turning to `CC(C)C1=N[C@H]2CC[C@]34C[C@]35C(=O)C[C@]3(C)[C@@H]([C@H](C)N(C)C)[C@H](O)C[C@@]3(C)[C@@H]5CC[C@H]4[C@]2(C)N1`, the 50% inhibitory concentration (IC50) is 7220 nM against Cholinesterase, above 10000 nM against Acetylcholinesterase [1] and above 10000 nM against Acetylcholinesterase [2].
In the case of `C[C@@H]([C@H]1[C@H](O)C[C@@]2(C)[C@@H]3CC[C@H]4[C@]5(C)COC(C(F)(C(F)(F)F)C(F)(F)F)=N[C@H]5CC[C@@]45C[C@@]35C(=O)C[C@]12C)N(C)C`, the values for the IC50 at Cholinesterase, against Acetylcholinesterase [1] and against Acetylcholinesterase [2] were above 10000 nM, 3000 nM and 1700 nM, respectively.
In the same order, the values of `CN[C@@H](C)[C@H]1[C@H](O)C[C@@]2(C)[C@@H]3CC[C@H]4[C@]5(C)CSC(C(C)C)=N[C@H]5CC[C@@]45C[C@@]35C(=O)C[C@]12C` are 1340 nM, 76 nM and 45 nM.
In the same order, the values of `COc1ccc(CN(C)[C@@H](C)[C@H]2[C@H](O)C[C@@]3(C)[C@@H]4CC[C@H]5[C@]6(C)CSC(C(C)C)=N[C@H]6CC[C@@]56C[C@@]46C(=O)C[C@]23C)cc1` are 217 nM, 9 nM and 18 nM.
In the same order, the values of `COc1cccc(CN(C)[C@@H](C)[C@H]2[C@H](O)C[C@@]3(C)[C@@H]4CC[C@H]5[C@]6(C)CSC(C(C)C)=N[C@H]6CC[C@@]56C[C@@]46C(=O)C[C@]23C)c1` are 477 nM, 3 nM and 6 nM.
Regarding `CC(C)C1=N[C@H]2CC[C@]34C[C@]35C(=O)C[C@]3(C)[C@@H]([C@H](C)N(C)CCc6ccccc6)[C@H](O)C[C@@]3(C)[C@@H]5CC[C@H]4[C@]2(C)CS1`, the 50% inhibitory concentration (IC50) at Cholinesterase was found to be 501 nM; on Acetylcholinesterase [1] it was 20 nM; against Acetylcholinesterase [2], 14 nM.
The compound `CC(C)C1=N[C@H]2CC[C@]34C[C@]35C(=O)C[C@]3(C)[C@@H]([C@H](C)N(C)C)[C@H](O)C[C@@]3(C)[C@@H]5CC[C@H]4[C@]2(C)CN1` had an IC50 against Acetylcholinesterase [2] above 10000 nM.
Consider `C[C@@H]([C@H]1[C@H](O)C[C@@]2(C)[C@@H]3CC[C@H]4[C@]5(C)COC(C(C)(C)F)=N[C@H]5CC[C@@]45C[C@@]35C(=O)C[C@]12C)N(C)C`, for which the values for the IC50 against Cholinesterase, against Acetylcholinesterase [1] and against Acetylcholinesterase [2] were above 10000 nM, 744 nM and 336 nM, respectively.
Taken in the same sequence, the figures for `CC(C)C1=N[C@H]2CC[C@]34C[C@]35C(=O)C[C@]3(C)[C@@H]([C@H](C)N(C)Cc6ccccc6C(F)(F)F)[C@H](O)C[C@@]3(C)[C@@H]5CC[C@H]4[C@]2(C)CS1` were above 10000 nM, 11 nM and 24 nM.
Taken in the same sequence, the figures for `C[C@@H]([C@H]1[C@H](O)C[C@@]2(C)[C@@H]3CC[C@H]4[C@]5(C)COC(C(F)(F)F)=N[C@H]5CC[C@@]45C[C@@]35C(=O)C[C@]12C)N(C)C` were above 10000 nM, above 10000 nM and above 10000 nM.
Consider `CC(C)C1=N[C@H]2CC[C@]34C[C@]35C(=O)C[C@]3(C)[C@@H]([C@H](C)N(C)Cc6ccc(C(F)(F)F)cc6)[C@H](O)C[C@@]3(C)[C@@H]5CC[C@H]4[C@]2(C)CS1`, for which the concentration for half-maximal inhibition (IC50) against Cholinesterase is above 10000 nM; on Acetylcholinesterase [1] it was 3 nM; against Acetylcholinesterase [2], 7 nM.
In the same order, the values of `CC(C)C1=N[C@H]2CC[C@]34C[C@]35C(=O)C[C@]3(C)[C@@H]([C@H](C)N(C)C(=O)OC(C)(C)C)[C@H](O)C[C@@]3(C)[C@@H]5CC[C@H]4[C@]2(C)CS1` are above 10000 nM, 159 nM and 186 nM.
In the same order, the values of `CC(C)C1=N[C@H]2CC[C@]34C[C@]35C(=O)C[C@]3(C)[C@@H]([C@H](C)N(C)CCN6C(=O)c7ccccc7C6=O)[C@H](O)C[C@@]3(C)[C@@H]5CC[C@H]4[C@]2(C)CS1` are 653 nM, 70 nM and 24 nM.
Taken in the same sequence, the figures for `CC(C)C1=N[C@H]2CC[C@]34C[C@]35C(=O)C[C@]3(C)[C@@H]([C@H](C)N(C)C)[C@H](O)C[C@@]3(C)[C@@H]5CC[C@H]4[C@]2(C)C=C1` were 679 nM, 25 nM and 16 nM.
On to `CC(C)C1=N[C@H]2CC[C@]34C[C@]35C(=O)C[C@]3(C)[C@@H]([C@H](C)N(C)Cc6ccccc6)[C@H](O)C[C@@]3(C)[C@@H]5CC[C@H]4[C@]2(C)CS1`, for which the IC50 came to 554 nM against Cholinesterase, 7 nM against Acetylcholinesterase [1] and 13 nM against Acetylcholinesterase [2].
Taken in the same sequence, the figures for `CC(C)C1=N[C@H]2CC[C@]34C[C@]35C(=O)C[C@]3(C)[C@@H]([C@H](C)N(C)CCCN6C(=O)c7ccccc7C6=O)[C@H](O)C[C@@]3(C)[C@@H]5CC[C@H]4[C@]2(C)CS1` were 224 nM, 14 nM and 14 nM.
`CC(=O)N(C)[C@@H](C)[C@H]1[C@H](O)C[C@@]2(C)[C@@H]3CC[C@H]4[C@]5(C)CSC(C(C)C)=N[C@H]5CC[C@@]45C[C@@]35C(=O)C[C@]12C`: the half-maximal inhibitory concentration (IC50) at Cholinesterase was above 10000 nM; at Acetylcholinesterase [1], 298 nM; against Acetylcholinesterase [2], 139 nM.
In the same order, the values of `CC(C)C1=N[C@H]2CC[C@]34C[C@]35C(=O)C[C@]3(C)[C@@H]([C@H](C)N(C)CCCc6ccccc6)[C@H](O)C[C@@]3(C)[C@@H]5CC[C@H]4[C@]2(C)CS1` are 1430 nM, 76 nM and 79 nM.
